# According to US20250176550A1, “HERBICIDE COMPOSITION OF URACIL COMPOUND CONTAINING CARBOXYLATE FRAGMENT AND THE USE THEREOF” (Jiangsu Flag Chemical Industry Co., Ltd., priority 2022, published 2025):
# Tests used:
# Assay in all cases: Indoor virulence and combined effect, greenhouse pot test, post-emergence stem and leaf spray, fresh weight inhibition
# Format in all cases: in vivo
# echinochloa crusgalli = conditions: for Fresh weight inhibition rate %, A single agent: post-emergence, 21 days after treatment; for Fresh weight suppression rate %, A single dose: Table 22
# Summary of the method: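 Greenhouse potted weeds sprayed post-emergence on stem and leaf at 3–4 leaf stage, with A and B alone or mixed; acetone solutions diluted in 0.1 wt% Tween-80, solvent-emulsifier water as blank.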
# digitaria sanguinalis = test system: digitaria sanguinalis
# Summary of the method: (§1)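 Weeds in greenhouse pots received a spray-tower treatment, either post-emergence at the 3–4 leaf (grasses) or 4–6 leaf (broadleaf) stage, or pre-emergence as a soil spray 24 h after sowing. Compounds were applied in acetone diluted with 0.1 wt% Tween-80 water, alone or mixed, in g/ha. Fresh weight inhibition was measured at 21 days, with synergy judged by Gowing expected efficacy (E−E0 >10%).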
# alopecurus japonicus = conditions: Table 7, post-emergence, 21 days after treatment
# Summary of the method: as §1
# eleusine indica = conditions: Table 30
# Summary of the method: as §1
# lolium multiflorum = test system: lolium multiflorum
# Summary of the method: as §1
compound,measurement,setting,value
CCOC(=O)C(C)(C)OC(=O)c1cc(-n2c(=O)cc(C(F)(F)F)n(C)c2=O)c(F)cc1Cl [Compound A-250],"Fresh weight inhibition rate %, A single agent","echinochloa crusgalli; Table 2, 15 g a.i./ha",26.41%
same,"Fresh weight inhibition rate %, A single agent","echinochloa crusgalli; Table 2, 20 g a.i./ha",30.73%
same,"Fresh weight inhibition rate %, A single agent","echinochloa crusgalli; Table 3, 20 g a.i./ha",30.73%
same,"Fresh weight inhibition rate %, A single agent","echinochloa crusgalli; Table 3, 25 g a.i./ha",31.56%
same,"Fresh weight inhibition rate %, A single agent","echinochloa crusgalli; Table 4, 15 g a.i./ha",26.41%
same,"Fresh weight inhibition rate %, A single agent","echinochloa crusgalli; Table 4, 20 g a.i./ha",30.73%
same,"Fresh weight inhibition rate %, A single agent","echinochloa crusgalli; Table 4, 25 g a.i./ha",31.56%
same,"Fresh weight suppression rate %, A single dose",echinochloa crusgalli; A 10 g a.i./ha,17.77%
same,"Fresh weight suppression rate %, A single dose",echinochloa crusgalli; A 15 g a.i./ha,26.41%
same,"Fresh weight suppression rate %, A single dose",echinochloa crusgalli; A 20 g a.i./ha,30.73%
same,"Fresh weight suppression rate %, A single dose",echinochloa crusgalli; A 25 g a.i./ha,31.56%
same,"Fresh weight inhibition rate %, A single agent","digitaria sanguinalis; Table 29, A 15 g a.i./ha",54.46%
same,"Fresh weight inhibition rate %, A single agent","digitaria sanguinalis; Table 29, A 20 g a.i./ha",61.09%
same,"Fresh weight inhibition rate %, A single agent","digitaria sanguinalis; Table 29, A 25 g a.i./ha",65.86%
same,"Fresh weight inhibition rate %, A single agent","digitaria sanguinalis; Table 29, A 30 g a.i./ha",71.11%
same,"Fresh weight inhibition rate %, A single agent","digitaria sanguinalis; Table 31, A 15 g a.i./ha",54.46%
same,"Fresh weight inhibition rate %, A single agent","digitaria sanguinalis; Table 31, A 20 g a.i./ha",61.09%
same,"Fresh weight inhibition rate %, A single agent","digitaria sanguinalis; Table 31, A 25 g a.i./ha",65.86%
same,"Fresh weight inhibition rate %, A single agent",alopecurus japonicus; 15 g a.i./ha,39%
same,"Fresh weight inhibition rate %, A single agent",alopecurus japonicus; 20 g a.i./ha,49.17%
same,"Fresh weight inhibition rate %, A single agent",alopecurus japonicus; 25 g a.i./ha,55.39%
same,"Fresh weight inhibition rate %, A single agent",eleusine indica; A 10 g a.i./ha,43.34%
same,"Fresh weight inhibition rate %, A single agent",eleusine indica; A 15 g a.i./ha,55.00%
same,"Fresh weight inhibition rate %, A single agent",eleusine indica; A 20 g a.i./ha,68.03%
same,"Fresh weight inhibition rate %, A single agent",eleusine indica; A 25 g a.i./ha,70.36%
same,"Fresh weight inhibition rate %, A single agent",eleusine indica; A 30 g a.i./ha,75.35%
same,"Fresh weight inhibition rate %, A single agent","lolium multiflorum; Table 34, A 15 g a.i./ha",55.00%
same,"Fresh weight inhibition rate %, A single agent","lolium multiflorum; Table 34, A 20 g a.i./ha",68.03%
same,"Fresh weight inhibition rate %, A single agent","lolium multiflorum; Table 34, A 25 g a.i./ha",70.36%
same,"Fresh weight inhibition rate %, A single agent","lolium multiflorum; Table 34, A 30 g a.i./ha",75.35%
same,"Fresh weight inhibition rate %, A single agent","lolium multiflorum; Table 38, A 10 g a.i./ha",43.34%
same,"Fresh weight inhibition rate %, A single agent","lolium multiflorum; Table 38, A 15 g a.i./ha",55.00%
same,"Fresh weight inhibition rate %, A single agent","lolium multiflorum; Table 38, A 20 g a.i./ha",68.03%
